According to patent US5140044A, “UCN-1028D derivatives” (Kyowa Hakko Kogyo Co., Ltd., priority 1989, dated 1992):
Values after ≈ are worked out from the molar mass of the structure shown.

Assays:
Protein Kinase C = experiment: Protein kinase C inhibitory activity (method of Kikkawa et al.; crude enzyme from rat brain, Histone Type II S phosphorylation); format: biochemical; conditions: crude enzyme partially purified from rat brain; [γ-32P]ATP, 30° C., 3 minutes, pH 7.5
Procedure: Protein kinase C inhibitory activity
The protein kinase C inhibitory activity was measured by the method of Kikkawa, et al. [Journal of Biological Chemistry, 257, 13341 (1982)].
That is, 10 μl of a test solution containing a UCN-1028D derivative was added to 250 μl of a solution containing 2.5 μmoles of magnesium acetate, 50 μg of Histone Type II S (manufactured by Sigma Co., Ltd.), 20 μg of phosphatidyl serine, 0.8 μg of diolein, 25 nmoles of CaCl2, 5 μg of crude enzyme (partially purified from rat brain according to the method of Kikkawa, et al.) and 5 μmoles of Tris-hydrochloride buffer (pH 7.5), followed by incubation at 30° C. for 3 minutes. Then, phosphorylation was initiated by addition of 1.25 nmoles of [γ-^32 P]ATP (5 to 10×10^3 cpm/nmole), followed by incubation at 30° C. for 3 minutes The reaction was stopped by adding 25% trichloroacetic acid (TCA), and the reaction solution was filtered through a cellulose acetate membrane (pore size: 0.45 μm) (manufactured by Toyo Filter Paper Co., Ltd.). After the membrane was washed four times with 5% TCA, radioactivity remaining on the membrane was measured. As a control, the same procedure as above was repeated without addition of the test solution and radioactivity was likewise measured. The concentration of the test solution showing 50% inhibition as compared with the control was expressed as IC50.

BALB 3T3/H-ras = experiment: Anti-tumor activity: growth inhibition of BALB 3T3 cells transformed with H-ras (Giemsa staining); format: cell-based; conditions: Mus musculus, BALB/3T3, 72 h, read-out: IC50 BALB 3T3/H-ras Inhibitory Activity
Procedure: The anti-tumor activity was determined using BALB 3T3 cells transformed with the carcinogenic gene H-ras (hereafter referred to as BALB 3T3/H-ras).
BALB 3T3/H-ras cells were suspended in a medium comprising DME medium (manufactured by Nissui Pharmaceutical Co., Ltd.) and 10% fetal calf serum (hereafter referred to as medium A) to a concentration of 3.0×10^4 /cells ml. The cell suspension thus prepared was put into wells of a 96-well microtiter plate in an amount of 0.1 ml per well. After culturing at 37° C. for 20 hours in a CO2 -incubator, 0.1 ml each of a test solution appropriately diluted with medium A was added to each well. The cells were further cultured at 37° C. for 72 hours in the CO2 -incubator and the culture supernatant was removed. After being washed once with physiological saline, the residue was treated with 0.1 ml of methanol for 10 minutes to fix the cells. Thereafter, the cells were stained with 0.1 ml of Giemsa staining solution [Giemsa staining stock solution (Merck Art 9204; manufactured by Merck Inc.) : physiological saline=1 : 10] for 5 minutes. After the staining solution was removed, the residue was washed once with 0.2 ml of water. The pigment was extracted with 0.2 ml of 0.1 N hydrochloric acid and the absorbance at 620 nm was measured with a microplate reader. By comparing the absorbance of untreated cells with those of the cells treated with the test compound at known concentrations, the concentration of the test compound at which the growth of the cells is inhibited by 50% (IC50) was calculated.

| Compound | IC50 Protein Kinase C Inhibitory Activity (Protein Kinase C) [µg/mL] | IC50 (BALB 3T3/H-ras) [µg/mL] |
| --- | --- | --- |
| COc1c(C[C@@H](C)OC(C)=O)c2c3c(C[C@@H](C)OC(C)=O)c(OC)c(=O)c4c(O)cc(OC)c(c5c(OC)cc(O)c(c1=O)c52)c43 [Compound 1, 14,17-di-O-acetyl UCN-1028D] | 1.6 (≈ 2.52 µM) | 0.048 (≈ 0.0756 µM) |
| CCCC(=O)O[C@H](C)Cc1c(OC)c(=O)c2c(O)cc(OC)c3c4c(OC)cc(O)c5c(=O)c(OC)c(C[C@@H](C)OC(=O)CCC)c(c1c23)c54 [Compound 2, 14,17-di-O-butyryl UCN-1028D] | 0.14 (≈ 0.203 µM) | 0.023 (≈ 0.0333 µM) |
| CCCCCC(=O)O[C@H](C)Cc1c(OC)c(=O)c2c(O)cc(OC)c3c4c(OC)cc(O)c5c(=O)c(OC)c(C[C@@H](C)OC(=O)CCCCC)c(c1c23)c54 [Compound 3, 14,17-di-O-hexanoyl UCN-1028D] | 0.035 (≈ 0.0469 µM) | 0.12 (≈ 0.161 µM) |
| CCCCCCC(=O)O[C@H](C)Cc1c(OC)c(=O)c2c(O)cc(OC)c3c4c(OC)cc(O)c5c(=O)c(OC)c(C[C@@H](C)OC(=O)CCCCCC)c(c1c23)c54 [Compound 4, 14,17-di-O-heptanoyl UCN-1028D] | 0.03 (≈ 0.0387 µM) | 0.52 (≈ 0.671 µM) |
| CCCCCCCCCC(=O)O[C@H](C)Cc1c(OC)c(=O)c2c(O)cc(OC)c3c4c(OC)cc(O)c5c(=O)c(OC)c(C[C@@H](C)OC(=O)CCCCCCCCC)c(c1c23)c54 [Compound 5, 14,17-di-O-decanoyl UCN-1028D] | 0.068 (≈ 0.0792 µM) | 7 (≈ 8.15 µM) |
| CCCCCCCCCCCC(=O)O[C@H](C)Cc1c(OC)c(=O)c2c(O)cc(OC)c3c4c(OC)cc(O)c5c(=O)c(OC)c(C[C@@H](C)OC(=O)CCCCCCCCCCC)c(c1c23)c54 [Compound 6, 14,17-di-O-dodecanoyl UCN-1028D] | 0.15 (≈ 0.164 µM) | 4.8 (≈ 5.24 µM) |
| C=CCCC(=O)O[C@H](C)Cc1c(OC)c(=O)c2c(O)cc(OC)c3c4c(OC)cc(O)c5c(=O)c(OC)c(C[C@@H](C)OC(=O)CCC=C)c(c1c23)c54 [Compound 7, 14,17-di-O-pentenoyl UCN-1028D] | 0.06 (≈ 0.0839 µM) | 0.17 (≈ 0.238 µM) |
| COc1c(C[C@@H](C)OC(=O)C2CCCCC2)c2c3c(C[C@@H](C)OC(=O)C4CCCCC4)c(OC)c(=O)c4c(O)cc(OC)c(c5c(OC)cc(O)c(c1=O)c52)c43 [Compound 8, 14,17-di-O-cyclohexanecarbonyl UCN-1028D] | 0.017 (≈ 0.0221 µM) | 0.56 (≈ 0.726 µM) |
| COc1c(C[C@@H](C)OC(=O)Cc2ccccc2)c2c3c(C[C@@H](C)OC(=O)Cc4ccccc4)c(OC)c(=O)c4c(O)cc(OC)c(c5c(OC)cc(O)c(c1=O)c52)c43 [Compound 9, 14,17-bis-O-phenylacetyl UCN-1028D] | 0.054 (≈ 0.0686 µM) | 0.11 (≈ 0.14 µM) |
| COc1c(C[C@@H](C)OC(=O)CCc2ccccc2)c2c3c(C[C@@H](C)OC(=O)CCc4ccccc4)c(OC)c(=O)c4c(O)cc(OC)c(c5c(OC)cc(O)c(c1=O)c52)c43 [Compound 10, 14,17-bis-O-3-phenylpropionyl UCN-1028D] | 0.045 (≈ 0.0552 µM) | 0.95 (≈ 1.17 µM) |
| COc1c(C[C@@H](C)OC(=O)CCCc2ccccc2)c2c3c(C[C@@H](C)OC(=O)CCCc4ccccc4)c(OC)c(=O)c4c(O)cc(OC)c(c5c(OC)cc(O)c(c1=O)c52)c43 [Compound 11, 14,17-bis-O-4-phenylbutyryl UCN-1028D] | 0.035 (≈ 0.0415 µM) | 2.6 (≈ 3.08 µM) |
| COc1c(C[C@@H](C)OC(=O)Cc2cccc3ccccc23)c2c3c(C[C@@H](C)OC(=O)Cc4cccc5ccccc45)c(OC)c(=O)c4c(O)cc(OC)c(c5c(OC)cc(O)c(c1=O)c52)c43 [Compound 12, 14,17-bis-O-1-naphthylacetyl UCN-1028D] | 0.05 (≈ 0.0564 µM) | 1.3 (≈ 1.47 µM) |
| COc1c(C[C@@H](C)OC(=O)COc2ccccc2)c2c3c(C[C@@H](C)OC(=O)COc4ccccc4)c(OC)c(=O)c4c(O)cc(OC)c(c5c(OC)cc(O)c(c1=O)c52)c43 [Compound 13, 14,17-bis-O-phenyloxyacetyl UCN-1028D] | 0.08 (≈ 0.0977 µM) | 0.03 (≈ 0.0366 µM) |
| COc1c(C[C@@H](C)OC(=O)[C@@H](N)CC(C)C)c2c3c(C[C@@H](C)OC(=O)[C@@H](N)CC(C)C)c(OC)c(=O)c4c(O)cc(OC)c(c5c(OC)cc(O)c(c1=O)c52)c43 [Compound 14, 14,17-di-O-L-leucyl UCN-1028D bistrifluoroacetate] | 0.21 (≈ 0.27 µM) | 0.45 (≈ 0.579 µM) |
| CC[C@H](C)[C@H](N)C(=O)O[C@H](C)Cc1c(OC)c(=O)c2c(O)cc(OC)c3c4c(OC)cc(O)c5c(=O)c(OC)c(C[C@@H](C)OC(=O)[C@@H](N)[C@@H](C)CC)c(c1c23)c54 [Compound 15, 14,17-di-O-L-isoleucyl UCN-1028D bistrifluoroacetate] | 0.15 (≈ 0.193 µM) | 0.28 (≈ 0.36 µM) |
| COc1c(C[C@@H](C)OC(=O)[C@H](N)c2ccccc2)c2c3c(C[C@@H](C)OC(=O)[C@H](N)c4ccccc4)c(OC)c(=O)c4c(O)cc(OC)c(c5c(OC)cc(O)c(c1=O)c52)c43 [Compound 16, 14,17-di-O-D-phenylglycyl UCN-1028D bistrifluoroacetate] | 0.17 (≈ 0.208 µM) | 0.72 (≈ 0.881 µM) |
| COc1c(C[C@@H](C)OC(=O)[C@@H](N)Cc2ccccc2)c2c3c(C[C@@H](C)OC(=O)[C@@H](N)Cc4ccccc4)c(OC)c(=O)c4c(O)cc(OC)c(c5c(OC)cc(O)c(c1=O)c52)c43 [Compound 17, 14,17-di-O-L-phenylalanyl UCN-1028D bistrifluoroacetate] | 0.088 (≈ 0.104 µM) | 0.35 (≈ 0.414 µM) |
| COc1c(C[C@@H](C)OC(=O)[C@H](N)Cc2ccccc2)c2c3c(C[C@@H](C)OC(=O)[C@H](N)Cc4ccccc4)c(OC)c(=O)c4c(O)cc(OC)c(c5c(OC)cc(O)c(c1=O)c52)c43 [Compound 18, 14,17-di-O-D-phenylalanyl UCN-1028D bistrifluoroacetate] | 0.16 (≈ 0.189 µM) | 0.84 (≈ 0.994 µM) |
| CN[C@@H](Cc1ccccc1)C(=O)O[C@H](C)Cc1c(OC)c(=O)c2c(O)cc(OC)c3c4c(OC)cc(O)c5c(=O)c(OC)c(C[C@@H](C)OC(=O)[C@H](Cc6ccccc6)NC)c(c1c23)c54 [Compound 19, 14,17-bis-O-N-methyl-L-phenylalanyl UCN-1028D bistrifluoroacetate] | 0.1 (≈ 0.115 µM) | 0.35 (≈ 0.401 µM) |
| COc1c(C[C@@H](C)OC(=O)[C@@H]2CCCN2)c2c3c(C[C@@H](C)OC(=O)[C@@H]4CCCN4)c(OC)c(=O)c4c(O)cc(OC)c(c5c(OC)cc(O)c(c1=O)c52)c43 [Compound 20, 14,17-di-O-L-prolyl UCN-1028D bistrifluoroacetate] | 0.33 (≈ 0.443 µM) | 3.2 (≈ 4.3 µM) |
| COc1c(C[C@@H](C)OC(=O)CCCCCN)c2c3c(C[C@@H](C)OC(=O)CCCCCN)c(OC)c(=O)c4c(O)cc(OC)c(c5c(OC)cc(O)c(c1=O)c52)c43 [Compound 21, 14,17-bis-O-6-aminohexanoyl UCN-1028D bis-trifluoroacetate] | 0.08 (≈ 0.103 µM) | 2.5 (≈ 3.22 µM) |
| COc1c(C[C@@H](C)OC(=O)c2ccc(OC(C)=O)cc2)c2c3c(C[C@@H](C)OC(=O)c4ccc(OC(C)=O)cc4)c(OC)c(=O)c4c(O)cc(OC)c(c5c(OC)cc(O)c(c1=O)c52)c43 [Compound 24, 14,17-bis-O-p-acetoxybenzoyl UCN-1028D] | 0.082 (≈ 0.0937 µM) | 0.048 (≈ 0.0549 µM) |
| COc1c(C[C@@H](C)OC(=O)c2ccc(C#N)cc2)c2c3c(C[C@@H](C)OC(=O)c4ccc(C#N)cc4)c(OC)c(=O)c4c(O)cc(OC)c(c5c(OC)cc(O)c(c1=O)c52)c43 [Compound 25, 14,17-bis-O-p-cyanobenzoyl UCN-1028D] | 0.05 (≈ 0.0618 µM) | 0.042 (≈ 0.0519 µM) |
| COc1c(C[C@@H](C)OC(=O)c2ccc(O)cc2)c2c3c(C[C@@H](C)OC(=O)c4ccc(O)cc4)c(OC)c(=O)c4c(O)cc(OC)c(c5c(OC)cc(O)c(c1=O)c52)c43 [Compound 26, 14,17-bis-O-p-hydroxybenzoyl UCN-1028D] | 0.084 (≈ 0.106 µM) | 0.13 (≈ 0.164 µM) |
